“Also recorded” adds a separate entry of the source. Where two headings read alike, the source gives them in different places.
Columns and labels:
[1] = test system: 5-HT1; assay: Binding test 5-HT1; conditions: at 3.6 10^-5 M
Excerpt: Compounds A and Compounds B of the present invention, which are examples of endo-tropyl and quinuclidylamide of 7-azaindolyl-3-carboxylic acid respectively have been studied "in vitro" for their interaction with the 5-HT1, 5-HT2 and 5-HT3 receptors.
Binding Test: 5-HT1 5-HT2
% of inhibition at 3.6 10^-5 M

[2] = test system: extra vasation by capsaicine; assay: Protection from capsaicine extravasation (Evans bleu); format: in vivo
Excerpt: It is assumed that Capsaicine releases substance P from the peripheral nerve endings of the sensitive fibers C and determines the necrosis of the same. It is known that capsaicine administration provokes the formation of an exudate (extra vasation by capsaicine) which can be evaluated by concomitant Evans bleu administration.

[3] = test system: σ; assay: Displacement of selective ligand from σ receptor (δ in text); format: binding; conditions: 10^-5 M; 10 µM
[4] = test system: α2; assay: Displacement of selective ligand from α2 receptor; format: binding; conditions: 10^-5 M; 10 µM
Excerpt: (§1) The interaction of Compounds A and B with other receptors (α1, α2, benzodiazepine (o bzd), GABA A, δ) in comparison to the typical 5-HT3 antagonist Ondastron and BRL 24682 has been studied and for each case the displacement % of the single selective ligand from the corresponding receptor at concentration 10^-5 M of the compounds under examination, has been evaluated.

[5] = test system: GABA A; assay: Displacement of selective ligand from GABA A receptor; format: binding; conditions: for Dispacement percentage Gaba A: 10^-5 M, 10 µM
[6] = test system: coughing stimulus by capsaicin; assay: Inhibition of cough induced by inhalation of capsaicin; format: in vivo, guinea pigs; conditions: for ED50: Cavia porcellus, po, read-out: ID50 coughing stimulus capsaicin; for % inhibition of the coughing stimulus by capsaicin: guinea pigs, single dose 100 mg/kg
Experimental: (§2) Besides these differences "in vitro" on the receptor behaviour great differences has been evidenced "in vivo" in the tussive stimulus inhibition provoked by inhalation of irritant citric acid as well as capsaicine aqueous solutions.
(§3) The compounds have been tested in guinea pigs in comparison to codeine, used as standard compound, at the single dose of 100 mg/kg according to the technique of Charlier et al., (Arch. Int. Pharmacodyn., 134, 306, 1961) which has been slightly modified.
(§4) The percent reduction evaluated in the number of short coughs after administration of the compound under examination taken in comparison to the number of short coughs observed in each of the animals to which the compound was administered, have been noted.
(§5) For these compounds as well as for the most interesting reference compounds the dose inhibiting 50% of the short coughs (ID50) induced either by citric acid or capsaicine has been determined.

[7] = test system: α1; assay: Displacement of selective ligand from α1 receptor; format: binding; conditions: 10^-5 M; 10 µM
Excerpt: as §1

[8] = test system: sleeping time induced by barbiturates; assay: Increase of sleeping time induced by barbiturates; format: in vivo, mice; conditions: for sleeping time increase: mice, barbiturate-induced sleep
Excerpt: For each of the compounds under examination it has been also tested the effect on the increase of the sleeping time induced by barbiturates. […]

[9] = test system: coughing stimulus by ac. citric; assay: Inhibition of cough induced by inhalation of citric acid; format: in vivo, guinea pigs; conditions: for ED50: Cavia porcellus, po, read-out: ID50 coughing stimulus ac. citric; for % inhibition of the coughing stimulus by ac. citric: guinea pigs, single dose 100 mg/kg
Experimental: as §2, §3, §4, §5

[10] = test system: coughing stimulus by capsaicin; assay: Inhibition of cough induced by inhalation of capsaicin; format: in vivo; conditions: guinea pigs
[11] = test system: cough induced by capsaicine; assay: Antitussive effect, capsaicine aqueous solution as irritant (Table V); format: in vivo, mice; conditions: os; for short coughs average n° ± s.e. / short coughs inhib. %: single dose 100 mg/kg, mice
Experimental: (§6) Further compound A (N-endo-8-methyl-8-azabicyclo [3,2,1] oct-3-yl)-7-azaindolyl-3-carboxamide has been tested for its antitussive effect in comparison to the closest compound belonging to the class of compounds of Japanese Kokai Tokkyo Koho JP 04 21 681, i.e., 8-methyl-8-azabicyclo [3,2,1] oct-3-yl)-1-methyl-7-azaindolyl-3-carboxamide. The compounds were administered by os at a single dose of 100 mg/kg on mice using as irritant agent capsaicine aqueous solution according to the previous mentioned technique.
as §6, with “.vertline.3,2,1.vertline.” for “[3,2,1]”, “antitussiv” for “antitussive”, “Jpn.” for “Japanese”, “i.e. 8-methyl-8-azabicliclo .vertline.3,2,1.vertline.” for “i.e., 8-methyl-8-azabicyclo [3,2,1]”

[12] = test system: benzodiazepine (bdz) receptor; assay: Displacement of selective ligand from benzodiazepine receptor; format: binding
Excerpt: as §1

[13] = test system: coughing stimulus by 2N H2 SO4; assay: Inhibition of cough induced by 2N H2SO4; format: in vivo, guinea pigs; conditions: Cavia porcellus, po, read-out: ID50 coughing stimulus 2N H2 SO4
[14] = biological target: T1, 5-HT3 (Homo sapiens, UniProt P46098); assay: Binding test 5-HT3
T1 sequence (P46098 24-478): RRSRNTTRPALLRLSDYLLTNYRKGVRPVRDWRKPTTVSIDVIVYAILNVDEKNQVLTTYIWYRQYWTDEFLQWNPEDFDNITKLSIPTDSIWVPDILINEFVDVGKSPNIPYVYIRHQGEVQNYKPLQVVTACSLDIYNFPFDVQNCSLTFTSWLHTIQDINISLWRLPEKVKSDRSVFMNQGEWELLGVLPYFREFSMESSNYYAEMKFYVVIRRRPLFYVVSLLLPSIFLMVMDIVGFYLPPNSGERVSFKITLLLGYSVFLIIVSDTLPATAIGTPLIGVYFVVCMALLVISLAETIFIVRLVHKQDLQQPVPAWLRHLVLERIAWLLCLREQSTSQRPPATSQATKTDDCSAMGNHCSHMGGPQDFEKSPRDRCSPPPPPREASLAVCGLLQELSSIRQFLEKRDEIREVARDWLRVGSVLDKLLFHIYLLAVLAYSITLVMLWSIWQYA

[15] = Acute oral toxicity; conditions: mouse, in vivo, mice
Experimental: The compounds of the invention may be administered by oral, sublingual, endovenous, subcutaneous, intramuscular, rectal route and by inhalation. The preferred doses vary from about 0.05 to about 15 mg/kg/die, depending on the conditions, weight, age of the patient and on the administration route. Higher dosages of the compounds of the invention, even for a prolonged period of time, have no contraindication because of their very low toxicity.

[16] = test system: 5-HT2; assay: Binding test 5-HT2; conditions: at 3.6 10^-5 M

SMILES: Cc1nccn1CC1CCc2c(c3ccccc3n2C)C1=O (racemic) [Ondasetron, reference compound]
- % of inhibition 5-HT1 [1]: 7.6%
- protection from capsaicine extravasation (in words) ([2]; 10 mg/kg i.p.): Solely Compound A and not Ondasetron has been found to give a 42% protection
- Dispacement percentage σ [3]: 45%
- Dispacement percentage α2 [4]: 30%
- interaction towards GABA A receptor (in words) [5]: aspecific
- Dispacement percentage Gaba A [5]: 38%
- ED50 ([6]; os, 95% confidence): 97 mg/kg
- % inhibition of the coughing stimulus by capsaicin [6]: 50.5%
- Dispacement percentage α1 [7]: 72%
- sleeping time increase ([8]; at the dose of 10 mg/kg): -8
- ED50 ([9]; os, 95% confidence): 209 mg/kg
- % inhibition of the coughing stimulus by ac. citric [9]: 30.5%

SMILES: COc1ccccc1CN[C@H]1C2CCN(CC2)[C@H]1C(c1ccccc1)c1ccccc1 (relative stereo) [CP 96 345]
- short cough inhibition, capsaicin ([10]; 10 mg/kg intraperitoneal): 26%
- short cough inhibition, capsaicin ([10]; 40 mg/kg intraperitoneal): 42%

SMILES: CN1C2CCC1CC(NC(=O)c1cn(C)c3ncccc13)C2 (stereo not shown) [8-methyl-8-azabicyclo [3,2,1] oct-3-yl)-1-methyl-7-azaindolyl-3-carboxamide, reference compound]
- short coughs average n° ± s.e. [11]: 6.5 ± 0.7
- short coughs inhib. % [11]: 6%

SMILES: COc1cc(N)c(Cl)cc1C(=O)N[C@H]1C[C@H]2CC[C@@H](C1)N2C [BRL 24682, N-(endo-8-methyl-8-azabicyclo-[3.2.1]oct-3-yl)-2-methoxy-4-amino-5-chlorobenzamide, reference compound]
- Dispacement percentage σ [3]: 0%
- Dispacement percentage α2 [4]: 16%
- interaction towards GABA A receptor (in words) [5]: high interaction with the benzodiazepine and GABA A receptors
- Dispacement percentage Gaba A [5]: 89%
- Dispacement percentage α1 [7]: 28%
- interaction with benzodiazepine receptor (in words) [12]: high interaction with the benzodiazepine and GABA A receptors
- Dispacement percentage bdz ([12]; 10^-5 M, 10 µM): 98%
- sleeping time increase ([8]; oral, single dose 100 mg/kg): +34.8
- % inhibition of the coughing stimulus by ac. citric [9]: 44.1%

SMILES: COc1ccc2c3c1O[C@H]1[C@@H](O)C=C[C@H]4[C@@H](C2)N(C)CC[C@@]341 [Codeine, reference compound]
- ED50 [6]: 74 mg/kg
- % inhibition of the coughing stimulus by capsaicin [6]: 58.4%
- sleeping time increase ([8]; oral, single dose 100 mg/kg): +106.4
- ED50 [9]: 65 mg/kg
- % inhibition of the coughing stimulus by ac. citric [9]: 63.2%
- ED50 [13]: 102 mg/kg

SMILES: CN1[C@@H]2CC[C@H]1C[C@@H](NC(=O)c1c[nH]c3ncccc13)C2 [Compound A, N-(endo-8-methyl-8-azabicyclo[3.2.1]oct-3-yl)-7-azaindolyl-3-carboxamide]
- antitussive effect, Table V (in words) ([11]; 100 mg/kg): effective as an antitussive compound; also recorded: effectiveness of compound A as antitussive compound
- short coughs average n° ± s.e. [11]: 1.8 ± 0.5
- short coughs inhib. % [11]: 75%
- % of inhibition 5-HT1 [1]: 0.0%
- IC50 [14]: 3000 nM
- interaction with 5-HT3 receptors (in words) [14]: very weak interaction with 5-HT3 receptors
- interaction with 5-HT3 receptors relative to Compound B (in words) ([14]; vs Compound B): logarithmically lower than that of Compound B
- interaction with 5-HT3 receptors relative to Ondasetron (times lower) ([14]; vs Ondasetron): 1,000 times
- protection from capsaicine extravasation ([2]; 10 mg/kg intraperitoneal, vs non-treated animals): 42%
- LD50 [15]: 1000 mg/kg
- Dispacement percentage σ [3]: 70%
- interaction towards GABA A receptor (in words) [5]: unusual ability of a double interaction, apparently selective, towards GABA A and δ receptors
- Dispacement percentage Gaba A [5]: 83%
- ED50 [6]: 51 mg/kg
- antitussive effect, capsaicin (in words) ([6]; guinea pig, in vivo): depends on the dose administered; also recorded: at least equiactive as codeine
- % inhibition of the coughing stimulus by capsaicin [6]: 76.30%
- % of inhibition 5-HT2 [16]: 8.6%
- Dispacement percentage α1 [7]: 13%
- sleeping time increase ([8]; oral, single dose 100 mg/kg): -28.9
- increase of the sleeping time induced by barbiturates (in words) ([8]; mouse, in vivo): does not show any increase of the sleeping time induced by barbiturates
- ED50 [9]: 57 mg/kg
- antitussive effect, citric acid (in words) ([9]; guinea pig, in vivo): depends on the dose administered; also recorded: at least equiactive as codeine
- % inhibition of the coughing stimulus by ac. citric [9]: 61.7%

SMILES: O=C(NC1CN2CCC1CC2)c1c[nH]c2ncccc12 (stereo not shown) [Compound B, N-(1-azabicyclo[2.2.2]oct-3-yl)-7-azaindolyl-3-carboxamide]
- % of inhibition 5-HT1 [1]: 37.0%
- IC50 [14]: 300 nM
- Dispacement percentage σ [3]: 26%
- interaction towards GABA A receptor (in words) [5]: definitely weak or absent
- Dispacement percentage Gaba A [5]: 6.7%
- % inhibition of the coughing stimulus by capsaicin [6]: 21.0%
- % of inhibition 5-HT2 [16]: 3.9%
- Dispacement percentage α1 [7]: 7%
- sleeping time increase ([8]; oral, single dose 100 mg/kg): -7
- % inhibition of the coughing stimulus by ac. citric [9]: 46.0%

SMILES: OC[C@@H](O)CN1CCN(c2ccccc2)CC1 [Levodropropyzina]
- ED50 ([6]; os, 95% confidence): 145 mg/kg
- ED50 ([9]; os, 95% confidence): 151 mg/kg
- ED50 ([13]; os, 95% confidence): 265 mg/kg
